Source: patent US6017933A, “Mannich bases of conjugated styryl ketones” (University of Saskatchewan Technologies Inc., priority 1999, dated 2000)
pIC50: −log10 of the molar value. “Also recorded” adds a separate entry of the source.

What was measured:
P388 cells = experiment: Cytotoxicity, murine P388 leukemic cells (P388 D1); conditions: read-out: P388 cells IC50
COLO 205 = COLO 205 human colon tumor xenograft in athymic mice; format: in vivo
Experimental: (§1) The compounds were examined by the Developmental Therapeutics Program, National Cancer Institute, U.S.A. The murine P388 lymphocytic leukemia assay was conducted by a reported known method and the maximum ILS figures for 9d and 10a were 5 and 20% respectively using doses of 54 and 6.7 mg/kg respectively. An increase of 20% or more in the life spans is considered to be statistically significant. A reference drug 5-fluorouracil has an ILS of >35 using a dose of 20 mg/kg when given intraperitoneally for five days. Passage of human tumors in athymic mice was undertaken by a known method. No definitions of activity are available but as a general rule compounds causing a 60% reduction in tumor weights in one of these screens would be evaluated further.

[1] = test system: P388 lymphocytic leukemia; experiment: Murine P388 lymphocytic leukemia in vivo screen
Experimental: In order to evaluate whether these promising results could be translated into in vivo activity, two representative compounds 9d and 10a were chosen. […] These two compounds were examined in the murine P388 screen and against certain human tumors in athymic mice.
as §1

L1210 cells = experiment: Cytotoxicity, murine L1210 leukemic cells; format: cell-based; conditions: Mus musculus, mean
human Jurkat T cells [2] = experiment: Apoptosis, fluorescence microscopy with acridine orange and ethidium bromide; conditions: for percentage of apoptotic cells: 17 hours, control 4.4%
CEM cells = experiment: Cytotoxicity, CEM human T-lymphocytes
Molt 4/C8 cells = experiment: Cytotoxicity, Molt 4/C8 human T-lymphocytes
[3] = test system: Jurkat T, LV-50, H-9 and Molt-3 cells; experiment: Cell viability of Jurkat T, LV-50, H-9 and Molt-3 cells; format: cell-based; conditions: 10 μM, 24 hour
Experimental: FIG. 5 is a graph showing percent viability of Jurkat T, LV-50, H-9 and Molt 3 cells after exposure to 10 μM of compound 9d for a 24 hour period with error bars representing mean±standard deviation in three separate experiments;
(§2) Cell viability was determined by the trypan blue exclusion test according to a literature procedure (Duke and Cohen, 1992). […] A flask containing ~10^6 cells/ml and 8 or […] of DMSO was used as the control. […] After 48 hours, cells were counted using a haemocytometer. The percentage of growth inhibition was calculated as follows: (C-T/C)×100 where C is the mean cell number in the control and T is the mean cell number in each treatment. […] All experiments were performed in triplicate.

SW-620 = SW-620 human colon tumor xenograft in athymic mice; format: in vivo; conditions: 80 mg/kg
Experimental: as §1

human Jurkat T cells [4] = experiment: DNA fragmentation by agarose gel electrophoresis; format: cell-based; conditions: Compound 9d 6 and 10 μM; melphalan 10 μM
human Jurkat T cells [5] = experiment: Growth inhibition of Jurkat T cells, trypan blue exclusion test; format: cell-based; conditions: read-out: growth of Jurkat T cells inhibited by 50% (IC50), 48 hours, 37° C., trypan blue
Experimental: All cell cultures used were maintained in RPMI 1640 medium, pH 7.4 supplanted with 10% fetal bovine serum and 50 μg/ml of gentamycin in 25 ml culture flasks at 37° C. in a humidified gas mixture of 5% carbon dioxide balanced with air and were passaged three times a week.
as §2

NCI-H522 = NCI-H522 human non-small cell lung tumor xenograft in athymic mice; format: in vivo; conditions: 80 mg/kg
Experimental: as §1

LOX IMVI = LOX IMVI human melanoma xenograft in athymic mice; format: in vivo, human tumor in athymic mice; conditions: 80 mg/kg
Experimental: as §1

human tumors = experiment: Cytotoxicity, human tumor cell line panel (approximately 55 lines)
[6] = test system: proton translocating ATPase of Saccharomyces cerevisiae; conditions: cited from earlier work

With `CCN1CCC(O)(/C=C/c2ccc(C)cc2)C(C(=O)/C=C/c2ccc(C)cc2)C1` (stereo not shown) [Compound 9d] the pIC50 (P388 cells) was 5.68, the “% ILS” value (COLO 205; COLO 205, 200 mg/kg, increase in median time to reach a certain size) was 28% and the “percent reduction in median tumor weight” value (COLO 205; COLO 205, 200 mg/kg, percentage reduction of median tumor weight) was 57%. For the same molecule, the “reduction in the weight of the human COLO 205 colon tumor” value (COLO 205; athymic mice, Example 5) was 60%, the “maximum ILS, murine P388” value ([1]; 54 mg/kg) was 5% and the “activity in the murine P388 screen” value ([1]; in words) was “inactive”. The pIC50 (L1210 cells) was 5.22, the “apoptotic index / apoptosis induction (in words)” value (human Jurkat T cells [2]) was “the apoptotic index increased almost two fold; also recorded: greater apoptotic index than melphalan; also recorded: more potent inducer of apoptosis; also recorded: potent apoptotic agent” and the “time after which apoptotic effects were detectable” value (human Jurkat T cells [2]) was 3 h. For the same molecule, the morphological features (human Jurkat T cells [2]; 6 μM, 17 h) was “characteristic blebbing and apoptotic bodies”, the “percentage of apoptotic cells” value (human Jurkat T cells [2]; 6 μM) was 22% and the “percentage of apoptotic cells” value (human Jurkat T cells [2]; 10 μM) was 43%. The “death of treated cells” value (human Jurkat T cells [2]; 48 hours) was “all the treated cells had died”, the pIC50 (CEM cells; Homo sapiens, CCRF-CEM, read-out: CEM cells IC50) was 4.85 and the “TIL1210 (CEM cells)” value (CEM cells; IC50 T-lymphocytes (CEM)/IC50 L1210) was 2.31. For the same molecule, the “TIP388 (CEM cells)” value (CEM cells; IC50 T-lymphocytes (CEM)/IC50 P388) was 6.69, the “TIht (CEM cells)” value (CEM cells; IC50 T-lymphocytes (CEM)/IC50 human tumors) was 2.80 and the “cytotoxicity to murine leukemic and human tumor cells vs T-lymphocytes” value (Molt 4/C8 cells) was “greater cytotoxicity to murine leukemic cells and human tumor cell lines than to T-lymphocytes”. The “TIL1210 (Molt 4/C8 cells)” value (Molt 4/C8 cells; IC50 T-lymphocytes (Molt 4/C8)/IC50 L1210) was 4.44, the “TIP388 (Molt 4/C8 cells)” value (Molt 4/C8 cells; IC50 T-lymphocytes (Molt 4/C8)/IC50 P388) was 12.85 and the “TIht (Molt 4/C8 cells)” value (Molt 4/C8 cells; IC50 T-lymphocytes (Molt 4/C8)/IC50 human tumors) was 5.39. The pIC50 (Molt 4/C8 cells; read-out: Molt 4/C8 cells IC50) was 4.57, the “sensitivity of cell lines” value [3] was “Jurkat T cells were the most sensitive in its response, although all cell cultures were affected” and the “% ILS” value (SW-620) was 9%. For the same molecule, the “% T/C” value (SW-620) was 32%, the “DNA ladder / DNA fragmentation” value (human Jurkat T cells [4]) was “did not show any DNA ladder; also recorded: no DNA fragmentation was detected” and the pIC50 (human Jurkat T cells [5]) was 5.46. For the same molecule, the “% ILS” value (NCI-H522) was -2%, the “% T/C” value (NCI-H522) was 23% and the “% ILS” value (LOX IMVI) was 12%. The “% T/C” value (LOX IMVI) was 35%, the “selective/preferential cytotoxicity towards colon cancer cells” value (human tumors; human tumor screen) was “preferential cytotoxicity towards human colon cells; also recorded: preferential cytotoxicity to colon; also recorded: selective toxicity to human colon cancer cells” and the pIC50 (human tumors; read-out: human tumors IC50, mean graph midpoint, approximately 55 cell lines, hydrobromide salts used for 4a, 11a-e) was 5.30.
In the case of `COc1ccc2[nH]c([S+]([O-])Cc3ncc(C)c(OC)c3C)nc2c1` (stereo not shown) [omeprazole], the “inhibition of proton translocating ATPase” value [6] is given as “inhibited the proton translocating ATPase of Saccharomyces cerevisiae”.
